Laboratory results taken from article PMC12040169 (PLOS Biology, 2025).

Assay: in vitro
Details: human, hela cells, % viability

SMILES	viability at 28.5 h, 10 µM [%]
CN(C)c1cccc(-c2cncc(Nc3cccc(C(F)(F)F)c3)n2)c1 [CBK065786]	100
CC(=O)Nc1ccc(-c2cncc(N(CCO)CCO)n2)cc1 [CBK065789]	106
COc1ccc(C(C)C)cc1-c1cncc(N2CCN(Cc3ccccn3)CC2)n1 [CBK065792]	88.6
CCOc1ccc(-c2cncc(Nc3cccc(C(F)(F)F)c3)n2)cc1 [CBK065798]	50
Clc1ccc(Nc2cncc(-c3cccs3)n2)cc1 [CBK065805]	107
Nc1cccc(-c2cncc(N(CCO)CCO)n2)c1 [CBK065808]	95.5
Fc1ccc(-c2cncc(NCCc3ccncc3)n2)c(F)c1 [CBK065810]	104
OCCN(CCO)c1cncc(-c2cccc3ccccc23)n1 [CBK065812]	84.5
O=C(c1ccco1)N1CCN(c2cncc(-c3ccc(F)cc3F)n2)CC1 [CBK065818]	93.7
Fc1ccc(-c2cncc(NCc3ccco3)n2)c(F)c1 [CBK065834]	91.9
OC1CCC(Nc2cncc(-c3ccc(F)cc3F)n2)CC1 (centres unmarked) [CBK065835]	107
CCCNc1cncc(-c2ccc(OCC)cc2)n1 [CBK065845]	99.8
OCCCNc1cncc(-c2ccc(F)cc2F)n1 [CBK065851]	96.1
CCOc1ccc(-c2cncc(Nc3ccc(C#N)cc3)n2)cc1 [CBK065862]	87.2
Fc1ccc(-c2cncc(NCCCN3CCOCC3)n2)c(F)c1 [CBK065867]	91.3
CC(C)[C@@H](CO)Nc1cncc(-c2ccc(F)cc2F)n1 [CBK065875]	98.5
CCOc1ccc(-c2cncc(NCCc3c[nH]c4ccccc34)n2)cc1 [CBK065876]	93
OCC1CCCN1c1cncc(-c2ccc(F)cc2F)n1 (centres unmarked) [CBK065891]	112
CN(C)CCN(C)c1cncc(-c2ccc3c(c2)OCO3)n1 [CBK065897]	101

SMILES	viability at 28.5 h, 10 µM [%]
O=C(O)C1CCN(c2cncc(-c3ccc(F)cc3F)n2)CC1 [CBK065899]	95.2
OC1CCC(Nc2cncc(-c3cccc4ccccc34)n2)CC1 (centres unmarked) [CBK065902]	90.2
FC(F)(F)Oc1cccc(-c2cncc(NCc3cccs3)n2)c1 [CBK065909]	97.5
COc1cc(CNc2cncc(-c3ccc4c(c3)OCO4)n2)cc(OC)c1OC [CBK065922]	99.5
c1coc(CNc2cncc(-c3ccc4c(c3)OCO4)n2)c1 [CBK065930]	101
C[C@@H](Nc1cncc(-c2ccc3c(c2)OCO3)n1)c1ccccc1 [CBK065954]	108
CCOc1cccc(-c2cncc(N(C)CCN(C)C)n2)c1 [CBK065977]	102
CN1CCCN(c2cncc(-c3ccc4c(c3)OCO4)n2)CC1 [CBK065978]	91.7
OCCNc1cncc(-c2ccc3c(c2)OCO3)n1 [CBK065979]	85.6
CN1CCCN(c2cncc(-c3cc4ccccc4o3)n2)CC1 [CBK065997]	93
Fc1ccc(CNc2cncc(-c3cc4ccccc4o3)n2)cc1 [CBK066005]	122
CC(=O)Nc1ccc(-c2cncc(Nc3ccc(C#N)cc3)n2)cc1 [CBK066009]	97.5
OCCN(CCO)c1cncc(-c2ccc(F)c(Cl)c2)n1 [CBK066015]	96.3
CCOc1cccc(-c2cncc(NC(C)CCCC(C)(C)O)n2)c1 (centres unmarked) [CBK066020]	95.6
CN(C)CCN(C)c1cncc(-c2cc3ccccc3o2)n1 [CBK066028]	92.7
CC(C)(CO)CNc1cncc(-c2cc3ccccc3o2)n1 [CBK066029]	91.1
OC1CCC(Nc2cncc(-c3cccc(Cl)c3)n2)CC1 (centres unmarked) [CBK066031]	91
c1ccc(CCNc2cncc(-c3cc4ccccc4o3)n2)nc1 [CBK066036]	96.5
CCOc1cccc(-c2cncc(N[C@H](C)c3ccccc3)n2)c1 [CBK066042]	103
